Measured values published in the NIST ThermoML archive (doi:10.1021/acs.jced.5b00549).
Numbers after ± are expanded uncertainties.

Assay: mn = molality of the nth substance listed, in mol/kg
Conditions: 100 kPa, Liquid; for viscosity: Capillary tube (Ostwald / Ubbelohde) method; for speed of sound: Frequency=3 MHz, Sing-around technique in a fixed-path interferometer; for mass density: Vibrating tube method

NC(=O)CC[C@H](N)C(=O)O [L-glutamine] + O
Conditions | mass density [kg/m3] | speed of sound [m/s] | viscosity [mPa·s]
293.15 K, m1 = 0.02 | 999.262 ± 0.27 | 1484 ± 0.85 | 1.012 ± 0.021
293.15 K, m1 = 0.04 | 1000.32 ± 0.27 | 1485.3 ± 0.86 | 1.017 ± 0.021
293.15 K, m1 = 0.06 | 1001.38 ± 0.27 | 1486.9 ± 0.86 | 1.022 ± 0.021
293.15 K, m1 = 0.08 | 1002.44 ± 0.27 | 1488.4 ± 0.87 | 1.027 ± 0.021
293.15 K, m1 = 0.1 | 1003.5 ± 0.27 | 1490.1 ± 0.88 | 1.031 ± 0.021
293.15 K, m1 = 0.12 | 1004.57 ± 0.27 | 1491.8 ± 0.88 | 1.035 ± 0.021
293.15 K, m1 = 0.14 | 1005.63 ± 0.27 | 1493.5 ± 0.88 | 1.039 ± 0.021
293.15 K, m1 = 0.16 | 1006.69 ± 0.27 | 1495.3 ± 0.89 | 1.043 ± 0.021
293.15 K, m1 = 0.18 | 1007.76 ± 0.27 | 1497.2 ± 0.89 | 1.047 ± 0.021
293.15 K, m1 = 0.2 | 1008.82 ± 0.27 | 1499 ± 0.89 | 1.051 ± 0.021
298.15 K, m1 = 0.02 | 998.094 ± 0.28 | 1498 ± 0.89 | 0.8984 ± 0.021
298.15 K, m1 = 0.04 | 999.147 ± 0.27 | 1499.3 ± 0.86 | 0.9028 ± 0.021
298.15 K, m1 = 0.06 | 1000.2 ± 0.27 | 1500.8 ± 0.86 | 0.9067 ± 0.021
298.15 K, m1 = 0.08 | 1001.26 ± 0.27 | 1502.3 ± 0.87 | 0.9104 ± 0.021
298.15 K, m1 = 0.1 | 1002.32 ± 0.27 | 1503.9 ± 0.88 | 0.9143 ± 0.021
298.15 K, m1 = 0.12 | 1003.37 ± 0.27 | 1505.6 ± 0.88 | 0.9175 ± 0.021
298.15 K, m1 = 0.14 | 1004.43 ± 0.27 | 1507.3 ± 0.88 | 0.9212 ± 0.021
298.15 K, m1 = 0.16 | 1005.49 ± 0.27 | 1509 ± 0.89 | 0.9246 ± 0.021
298.15 K, m1 = 0.18 | 1006.56 ± 0.27 | 1510.7 ± 0.9 | 0.9277 ± 0.021
298.15 K, m1 = 0.2 | 1007.62 ± 0.26 | 1512.6 ± 0.86 | 0.9308 ± 0.021
303.15 K, m1 = 0.02 | 996.679 ± 0.28 | 1510.3 ± 0.89 | 0.8039 ± 0.021
303.15 K, m1 = 0.04 | 997.722 ± 0.27 | 1511.6 ± 0.86 | 0.8076 ± 0.021
303.15 K, m1 = 0.06 | 998.771 ± 0.27 | 1513 ± 0.86 | 0.8109 ± 0.021
303.15 K, m1 = 0.08 | 999.819 ± 0.27 | 1514.5 ± 0.87 | 0.8141 ± 0.021
303.15 K, m1 = 0.1 | 1000.87 ± 0.27 | 1516 ± 0.88 | 0.817 ± 0.021
303.15 K, m1 = 0.12 | 1001.92 ± 0.27 | 1517.7 ± 0.88 | 0.82 ± 0.021
303.15 K, m1 = 0.14 | 1002.97 ± 0.27 | 1519.4 ± 0.88 | 0.8224 ± 0.021
303.15 K, m1 = 0.16 | 1004.02 ± 0.27 | 1521 ± 0.88 | 0.8254 ± 0.021
303.15 K, m1 = 0.18 | 1005.09 ± 0.27 | 1522.7 ± 0.89 | 0.8283 ± 0.021
303.15 K, m1 = 0.2 | 1006.14 ± 0.26 | 1524.5 ± 0.86 | 0.8316 ± 0.021
308.15 K, m1 = 0.02 | 995.051 ± 0.28 | 1520.9 ± 0.89 | 0.7243 ± 0.021
308.15 K, m1 = 0.04 | 996.088 ± 0.27 | 1522.2 ± 0.86 | 0.7275 ± 0.021
308.15 K, m1 = 0.06 | 997.129 ± 0.27 | 1523.6 ± 0.86 | 0.7302 ± 0.021
308.15 K, m1 = 0.08 | 998.171 ± 0.27 | 1525 ± 0.87 | 0.7329 ± 0.021
308.15 K, m1 = 0.1 | 999.218 ± 0.27 | 1526.5 ± 0.88 | 0.7352 ± 0.021
308.15 K, m1 = 0.12 | 1000.26 ± 0.27 | 1528.1 ± 0.88 | 0.7379 ± 0.021
308.15 K, m1 = 0.14 | 1001.31 ± 0.27 | 1529.8 ± 0.88 | 0.7405 ± 0.021
308.15 K, m1 = 0.16 | 1002.36 ± 0.27 | 1531.4 ± 0.89 | 0.7425 ± 0.021
308.15 K, m1 = 0.18 | 1003.41 ± 0.27 | 1533.1 ± 0.89 | 0.7448 ± 0.021
308.15 K, m1 = 0.2 | 1004.48 ± 0.26 | 1534.8 ± 0.86 | 0.7469 ± 0.021
313.15 K, m1 = 0.02 | 993.226 ± 0.26 | 1530 ± 0.86 | 0.6569 ± 0.02
313.15 K, m1 = 0.04 | 994.257 ± 0.26 | 1531.3 ± 0.86 | 0.6595 ± 0.02
313.15 K, m1 = 0.06 | 995.294 ± 0.27 | 1532.6 ± 0.86 | 0.6621 ± 0.02
313.15 K, m1 = 0.08 | 996.332 ± 0.27 | 1534 ± 0.87 | 0.6638 ± 0.02
313.15 K, m1 = 0.1 | 997.372 ± 0.27 | 1535.5 ± 0.88 | 0.666 ± 0.02
313.15 K, m1 = 0.12 | 998.413 ± 0.27 | 1537.1 ± 0.88 | 0.6682 ± 0.02
313.15 K, m1 = 0.14 | 999.457 ± 0.27 | 1538.6 ± 0.88 | 0.6702 ± 0.02
313.15 K, m1 = 0.16 | 1000.5 ± 0.27 | 1540.3 ± 0.89 | 0.6716 ± 0.02
313.15 K, m1 = 0.18 | 1001.56 ± 0.27 | 1542 ± 0.89 | 0.674 ± 0.02
313.15 K, m1 = 0.2 | 1002.6 ± 0.27 | 1543.7 ± 0.89 | 0.6759 ± 0.02
